In PubChem BioAssay AID1996:
In brackets after ≈: the same amount, converted by molar mass.

settings: buffer; pH 7.4; 200.0 µM

First: Cc1ccccc1N1C(=O)c2ccccc2C1O (stereo not given)
Second: Cc1ccn2c(NC(=O)c3ccccc3)c(-c3ccccc3)nc2c1
The solubility kinetic of the first is 18-fold higher: 35.8 µg/mL (≈ 150 µM) for the first, 2 µg/mL (≈ 6.11 µM) for the second.

Going from `CCOC(=O)C1=C(C)NC2=C(C(=O)c3ccccc32)C1c1ccc([N+](=O)[O-])o1` (stereo not given) to `CSc1cccc(N=C2C(=O)Nc3ccccc32)c1`, the solubility kinetic rises from 7.4 µg/mL (≈ 19.5 µM) to 33 µg/mL (≈ 123 µM) (4.5-fold).

Going from `Cc1cc(Cl)ccc1OCCCC(=O)OCC(N)=O` to `NC(=O)COC(=O)c1sc2ccccc2c1Cl`, the solubility kinetic falls from 42.3 µg/mL (≈ 148 µM) to 12.4 µg/mL (≈ 46 µM) (3.4-fold).

`CCCc1nnc(NC(=O)CCC(=O)NC2CC2)s1` and `O=C(COC(=O)CNC(=O)c1ccccc1F)NC1CC1` cannot be ordered by solubility kinetic: greater than 42.4 µg/mL for the first, greater than 44.1 µg/mL for the second.

`O=C(COC(=O)CSc1ccc([N+](=O)[O-])cc1)NCC1CCCO1` (stereo not given) and `CC1CC1C(=O)OCC(=O)NCc1ccccc1` (stereo not given) cannot be ordered by solubility kinetic: greater than 53.2 µg/mL for the first, greater than 37.1 µg/mL for the second.

First: Cc1ccc(C)c(SCC(=O)Nc2cccc(S(=O)(=O)N3CCOCC3)c2)c1
Second: Cc1cccc(S(=O)(=O)N2CCn3cccc3C2C)c1 (stereo not given)
The solubility kinetic of the first is lower: 21.4 µg/mL (≈ 50.9 µM) for the first, greater than 43.6 µg/mL for the second.

Going from `Cc1cccc(C(=O)OCC(=O)Nc2ccc(F)cc2)c1` to `CC(Oc1cccnc1[N+](=O)[O-])C(=O)Nc1ccc(F)cc1` (stereo not given), the solubility kinetic rises from 6.3 µg/mL (≈ 21.9 µM) to greater than 45.8 µg/mL.

Going from `O=C(NCc1ccccc1Cl)C1CCN(c2cnccn2)CC1` to `O=S(=O)(NC1CCSc2ccccc21)c1ccc(Cl)nc1` (stereo not given), the solubility kinetic falls from greater than 49.6 µg/mL to 11.6 µg/mL (≈ 34 µM).

`CN(C)CCNC(=O)C(=O)Nc1cc2c3c(c1)CCC(=O)N3CCC2` and `CC(=O)Nc1ccc(C(=O)OCC(=O)N2CCCC2=O)cc1` cannot be ordered by solubility kinetic: 50.9 µg/mL (≈ 148 µM) for the first, greater than 45.6 µg/mL for the second.

Going from `CN1CCN(c2ccc(NC(=O)c3ccco3)cc2Cl)CC1` to `CC(=O)Nc1ccc2c(c1)CCc1ccccc1-2`, the solubility kinetic falls from 45.3 µg/mL (≈ 142 µM) to 3.9 µg/mL (≈ 16.4 µM) (12-fold).

Going from `CC(CCc1ccccc1)NC(=O)CNc1cccc([N+](=O)[O-])c1` (stereo not given) to `CC(=O)Nc1cccc(NC(=O)Cc2ccc3ccccc3c2)c1`, the solubility kinetic falls from greater than 49.1 µg/mL to 0.9 µg/mL (≈ 2.83 µM).

`COc1ccc(CN(CCC(c2ccco2)C(C)C)C(C)=O)cc1OC` (stereo not given) and `COc1ccccc1N1Cc2ccc(OC)c(OC)c2C1=O` cannot be ordered by solubility kinetic: 49.2 µg/mL (≈ 137 µM) for the first, greater than 44.9 µg/mL for the second.

First: CCn1cc(S(=O)(=O)Nc2ncccn2)cn1
Second: NS(=O)(=O)c1ccc(SCc2ccccc2)nc1
The solubility kinetic of the first is higher: greater than 38 µg/mL for the first, 10.4 µg/mL (≈ 37.1 µM) for the second.

Compared with `O=C1CN(C(=O)CSc2ccccn2)c2ccccc2N1`, `CN(C)C(=O)CSc1ncccc1-c1nc2ccccc2[nH]1` is lower in solubility kinetic: greater than 44.9 µg/mL for the first, 42.6 µg/mL (≈ 136 µM) for the second.

First: O=C(NC1CCCCC1)C1COc2ccccc2O1 (stereo not given)
Second: CC1CCCCN1C(=O)C1COc2ccccc2O1 (stereo not given)
The solubility kinetic of the first is higher: greater than 39.2 µg/mL for the first, 35.5 µg/mL (≈ 136 µM) for the second.

`CCCn1c(=O)c2c(nc3n2CCN3Cc2ccco2)n(C)c1=O` and `CCCCn1c(C)c(C(=O)OCC)c2c(CN3CCCC3)c(O)ccc21` cannot be ordered by solubility kinetic: greater than 49.4 µg/mL for the first, 53.1 µg/mL (≈ 148 µM) for the second.

Going from `CC(NS(=O)(=O)c1ccc2c(c1)CC(=O)N2C)c1ccccc1` (stereo not given) to `CC(C)N(C(=O)Cn1c(=O)oc2ccccc21)c1ccccc1`, the solubility kinetic falls from greater than 49.6 µg/mL to 0.7 µg/mL (≈ 2.26 µM).

Going from `Cc1ccc2oc(=O)n(CC(=O)OCCC(C)C)c2c1` to `Cc1ccc(NC(=O)CN(C)CCOc2ccccc2)c([N+](=O)[O-])c1`, the solubility kinetic falls from 16 µg/mL (≈ 57.7 µM) to less than 0.2 µg/mL.

Going from `Cc1ccc(CNc2nc(N)c([N+](=O)[O-])c(NCCO)n2)cc1` to `Fc1ccc(CNc2ccccn2)cc1`, the solubility kinetic falls from 43.4 µg/mL (≈ 136 µM) to 24.3 µg/mL (≈ 120 µM) (1.8-fold).

`CCOc1ccccc1NC(=O)c1ccc2nc[nH]c2c1` and `O=C(O)Cc1c(-c2ccccc2)c2cc(Br)ccc2[nH]c1=O` cannot be ordered by solubility kinetic: greater than 42.2 µg/mL for the first, 50.2 µg/mL (≈ 140 µM) for the second.

Going from `Cn1c(CN2CCCCC2)nc2cc([N+](=O)[O-])ccc21` to `O=[N+]([O-])c1ccc2c(c1)nc1n2CCN(c2ccccc2)C1`, the solubility kinetic falls from greater than 41.1 µg/mL to 6.8 µg/mL (≈ 23.1 µM).

First: O=C(Nc1cccc(Cl)c1)c1cc(F)cc2c1OCOC2
Second: O=S(=O)(NCc1ccc(Cl)cc1Cl)c1cccs1
The solubility kinetic of the first is lower: less than 0.7 µg/mL for the first, 40.6 µg/mL (≈ 126 µM) for the second.

First: Cc1cc(C)c(C#N)c(Nc2cccc(C)c2C)n1
Second: CCOC(=O)CC(=O)CSc1nc(CC)c(C)cc1C#N
The solubility kinetic of the first is lower: 1 µg/mL (≈ 3.98 µM) for the first, greater than 46 µg/mL for the second.

`COc1ccc(NC(=O)CNC(=O)C2CCCCC2)cc1OC` and `COC(=O)CC1C(=O)NCCN1C(=S)Nc1ccc(F)cc1` (stereo not given) cannot be ordered by solubility kinetic: greater than 48.1 µg/mL for the first, greater than 48.8 µg/mL for the second.

Going from `C=CCNC(=S)/N=c1/ccccn1CC` to `CCN(CC)C(=O)CN1C(=O)/C(=C/c2ccccc2)SC1=S`, the solubility kinetic falls from 28.7 µg/mL (≈ 130 µM) to 2.5 µg/mL (≈ 7.47 µM) (11-fold).

`CCCN(CCC)CC(C)(C)NS(=O)(=O)c1ccc(Cl)cc1` and `CCSc1ncccc1C(=O)N[C@@H](CCSC)C(=O)OC` are within 1.5-fold of each other in solubility kinetic: 39.6 µg/mL (≈ 114 µM) for the first, 36.1 µg/mL (≈ 110 µM) for the second.

`CC(=O)N1CCN(c2nc(N)c(C#N)c(CC#N)c2C#N)CC1` and `CCOc1ccc2nc(NC(=O)CN3CCN(CC)CC3)sc2c1` cannot be ordered by solubility kinetic: greater than 46.4 µg/mL for the first, 47.6 µg/mL (≈ 137 µM) for the second.

First: COc1cccc(Oc2ccc(C(F)(F)F)cc2NC(=O)CN2C(=O)NC3(CCCC3)C2=O)c1
Second: COc1ccc(C(=O)CCC(=O)Nc2cccnc2)cc1
The solubility kinetic of the first is lower: 2.7 µg/mL (≈ 5.66 µM) for the first, greater than 42.6 µg/mL for the second.

First: c1ccc(CSc2cc3ccccc3[nH]2)cc1
Second: Cc1cc(C)n(-c2cc(C(=O)O)cc(C(=O)O)c2)n1
The solubility kinetic of the first is lower: 2.8 µg/mL (≈ 11.7 µM) for the first, greater than 39 µg/mL for the second.

`Cc1noc(C)c1C(=O)NC1=NCCS1` and `Cc1cccc(C)c1NC(=O)CN(C)C(=O)CCC(=O)N1CCOCC1` cannot be ordered by solubility kinetic: greater than 33.8 µg/mL for the first, greater than 54.2 µg/mL for the second.
